Reference: PubChem BioAssay AID250 (DTP/NCI, 2004)
Several values for one entry are separate records, joined by “and”; a condition that tells them apart may be missing. Identical values can stand only once. Inconclusive results and toxic doses are left out.

Test system: BDF1 mice, L1210 leukemia sc, survival T/C
Assay: NCI In Vivo Anticancer Drug Screen. Data for tumor model L1210 Leukemia (subcutaneous) in B6D2F1 (BDF1) mice
Conditions: higher = longer survival
In short: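 Read-out: T/C ratio, i.e. survival or tumor size in treated mice over that in vehicle-treated controls, from mice bearing transplantable tumors.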

[1] = endpoint: median survival time, dose: 1.08 mg/kg/injection, schedule: Q01DX Z (sc), vehicle: saline
[2] = endpoint: median survival time, dose: 1.8 mg/kg/injection, schedule: Q01DX Z (sc), vehicle: saline
[3] = endpoint: median survival time, dose: 1.8 mg/kg/injection, schedule: Q02DX Z (sc), vehicle: saline
[4] = endpoint: median survival time, dose: 3.0 mg/kg/injection, schedule: Q01DX Z (sc), vehicle: saline
[5] = endpoint: median survival time, dose: 5.0 mg/kg/injection, schedule: Q01DX Z (sc), vehicle: saline
[6] = endpoint: median survival time, dose: 5.0 mg/kg/injection, schedule: Q## X Z (sc), vehicle: saline
[7] = endpoint: median survival time, dose: 8.4 mg/kg/injection, schedule: Q02DX Z (sc), vehicle: saline
[8] = endpoint: median survival time, dose: 8.4 mg/kg/injection, schedule: Q## X Z (sc), vehicle: saline
[9] = endpoint: median survival time, dose: 14.0 mg/kg/injection, schedule: Q02DX Z (sc), vehicle: saline
[10] = endpoint: median survival time, dose: 14.0 mg/kg/injection, schedule: Q## X Z (sc), vehicle: saline
[11] = endpoint: median survival time, dose: 23.0 mg/kg/injection, schedule: Q01DX Z (sc), vehicle: water

CN(C)/N=N/c1nc[nH]c1C(N)=O
T/C (endpoint: mean survival time, dose: 39.0 mg/kg/injection, schedule: Q01DX009 (sc), vehicle: steriod suspending solution): 117 % of control | T/C (endpoint: mean survival time, dose: 65.0 mg/kg/injection, schedule: Q01DX009 (sc), vehicle: steriod suspending solution): 115 % of control | T/C (endpoint: mean survival time, dose: 300.0 mg/kg/injection, schedule: Q01DX009 (sc), vehicle: steriod suspending solution): 158 % of control | T/C (endpoint: median survival time, dose: 39.0 mg/kg/injection, schedule: Q01DX009 (sc), vehicle: steriod suspending solution): 110 % of control and 116 % of control | T/C (endpoint: median survival time, dose: 39.0 mg/kg/injection, schedule: Q01DX013 (sc), vehicle: steriod suspending solution): 110 % of control and 111 % of control | T/C (endpoint: median survival time, dose: 39.0 mg/kg/injection, schedule: Q01DX Z (sc), vehicle: steriod suspending solution): 110 % of control and 116 % of control | T/C (endpoint: median survival time, dose: 65.0 mg/kg/injection, schedule: Q01DX009 (sc), vehicle: other): 111 % of control | T/C (endpoint: median survival time, dose: 65.0 mg/kg/injection, schedule: Q01DX009 (sc), vehicle: steriod suspending solution): 110 % of control and 118 % of control and 121 % of control | T/C (endpoint: median survival time, dose: 65.0 mg/kg/injection, schedule: Q01DX013 (sc), vehicle: other): 113 % of control | T/C (endpoint: median survival time, dose: 65.0 mg/kg/injection, schedule: Q01DX013 (sc), vehicle: steriod suspending solution): 111 % of control and 113 % of control and 115 % of control | T/C (endpoint: median survival time, dose: 65.0 mg/kg/injection, schedule: Q01DX017 (oral), vehicle: steriod suspending solution): 124 % of control | T/C (endpoint: median survival time, dose: 65.0 mg/kg/injection, schedule: Q01DX Z (sc), vehicle: steriod suspending solution): 121 % of control and 122 % of control | T/C (endpoint: median survival time, dose: 65.0 mg/kg/injection, schedule: Q ##X015 (oral), vehicle: steriod suspending solution): 113 % of control | T/C (endpoint: median survival time, dose: 65.0 mg/kg/injection, schedule: Q## X015 (oral), vehicle: steriod suspending solution): 116 % of control | T/C (endpoint: median survival time, dose: 108.0 mg/kg/injection, schedule: Q01DX009 (sc), vehicle: other): 108 % of control | T/C (endpoint: median survival time, dose: 108.0 mg/kg/injection, schedule: Q01DX013 (sc), vehicle: steriod suspending solution): 115 % of control and 117 % of control and 122 % of control | T/C (endpoint: median survival time, dose: 108.0 mg/kg/injection, schedule: Q01DX Z (sc), vehicle: steriod suspending solution): 115 % of control | T/C (endpoint: median survival time, dose: 108.0 mg/kg/injection, schedule: Q ##X015 (oral), vehicle: steriod suspending solution): 117 % of control | T/C (endpoint: median survival time, dose: 108.0 mg/kg/injection, schedule: Q## X015 (oral), vehicle: steriod suspending solution): 116 % of control | T/C (endpoint: median survival time, dose: 180.0 mg/kg/injection, schedule: Q01DX009 (sc), vehicle: other): 115 % of control | T/C (endpoint: median survival time, dose: 300.0 mg/kg/injection, schedule: Q01DX Z (sc), vehicle: steriod suspending solution): 166 % of control | T/C (endpoint: median survival time, dose: 500.0 mg/kg/injection, schedule: Q01DX013 (sc), vehicle: other): 166 % of control | T/C (endpoint: median survival time, dose: 500.0 mg/kg/injection, schedule: Q01DX013 (sc), vehicle: steriod suspending solution): 166 % of control | T/C (endpoint: median survival time, dose: 500.0 mg/kg/injection, schedule: Q01DX017 (oral), vehicle: steriod suspending solution): 150 % of control | T/C (endpoint: median survival time, dose: 500.0 mg/kg/injection, schedule: Q## X015 (oral), vehicle: steriod suspending solution): 150 % of control | T/C (endpoint: median survival time, dose: 833.0 mg/kg/injection, schedule: Q ##X015 (oral), vehicle: steriod suspending solution): 158 % of control | T/C (endpoint: median survival time, dose: 833.0 mg/kg/injection, schedule: Q## X015 (oral), vehicle: steriod suspending solution): 166 % of control

CC1CC(C)(O)CC(C(O)CC2CC(=O)NC(=O)C2)C1=O (stereo unspecified)
T/C (endpoint: median survival time, dose: 0.14 mg/kg/injection, schedule: Q01DX Z (sc), vehicle: saline): 108 % of control | T/C (endpoint: median survival time, dose: 0.24 mg/kg/injection, schedule: Q01DX Z (sc), vehicle: saline): 120 % of control | T/C (endpoint: median survival time, dose: 0.39 mg/kg/injection, schedule: Q02DX Z (sc), vehicle: saline): 120 % of control | T/C (endpoint: median survival time, dose: 0.4 mg/kg/injection, schedule: Q01DX Z (sc), vehicle: saline): 116 % of control | T/C (endpoint: median survival time, dose: 0.65 mg/kg/injection, schedule: Q02DX Z (sc), vehicle: saline): 120 % of control | T/C (endpoint: median survival time, dose: 0.67 mg/kg/injection, schedule: Q01DX Z (sc), vehicle: saline): 116 % of control | T/C [1]: 120 % of control | T/C (endpoint: median survival time, dose: 1.08 mg/kg/injection, schedule: Q02DX Z (sc), vehicle: saline): 120 % of control | T/C (endpoint: median survival time, dose: 1.08 mg/kg/injection, schedule: Q## X Z (sc), vehicle: saline): 110 % of control | T/C (endpoint: median survival time, dose: 1.12 mg/kg/injection, schedule: Q01DX Z (sc), vehicle: saline): 104 % of control | T/C [2]: 120 % of control | T/C [3]: 120 % of control | T/C (endpoint: median survival time, dose: 1.8 mg/kg/injection, schedule: Q## X Z (sc), vehicle: saline): 110 % of control | T/C (endpoint: median survival time, dose: 1.87 mg/kg/injection, schedule: Q01DX Z (sc), vehicle: saline): 100 % of control | T/C (endpoint: median survival time, dose: 3.0 mg/kg/injection, schedule: Q01DX001 (sc), vehicle: saline): 120 % of control | T/C [4]: 110 % of control | T/C (endpoint: median survival time, dose: 3.0 mg/kg/injection, schedule: Q## X Z (sc), vehicle: saline): 115 % of control | T/C (endpoint: median survival time, dose: 3.11 mg/kg/injection, schedule: Q01DX Z (sc), vehicle: saline): 100 % of control | T/C (endpoint: median survival time, dose: 5.0 mg/kg/injection, schedule: Q01DX001 (sc), vehicle: saline): 120 % of control | T/C [5]: 100 % of control | T/C [6]: 115 % of control | T/C [7]: 110 % of control | T/C [8]: 120 % of control | T/C [9]: 100 % of control | T/C [10]: 120 % of control

C=CC(CO)N1CC1 (stereo unspecified)
T/C [1]: 100 % of control | T/C [2]: 100 % of control | T/C [3]: 100 % of control | T/C [4]: 100 % of control | T/C (endpoint: median survival time, dose: 3.0 mg/kg/injection, schedule: Q02DX Z (sc), vehicle: saline): 105 % of control | T/C [5]: 90 % of control and 100 % of control | T/C (endpoint: median survival time, dose: 5.0 mg/kg/injection, schedule: Q02DX Z (sc), vehicle: saline): 100 % of control | T/C [6]: 100 % of control | T/C (endpoint: median survival time, dose: 7.8 mg/kg/injection, schedule: Q01DX Z (sc), vehicle: saline): 100 % of control | T/C (endpoint: median survival time, dose: 8.4 mg/kg/injection, schedule: Q01DX001 (sc), vehicle: saline): 100 % of control | T/C [7]: 100 % of control | T/C [8]: 100 % of control | T/C (endpoint: median survival time, dose: 14.0 mg/kg/injection, schedule: Q01DX001 (sc), vehicle: saline): 100 % of control | T/C (endpoint: median survival time, dose: 14.0 mg/kg/injection, schedule: Q01DX Z (sc), vehicle: saline): 100 % of control | T/C [9]: 100 % of control | T/C [10]: 100 % of control | T/C (endpoint: median survival time, dose: 23.0 mg/kg/injection, schedule: Q01DX001 (sc), vehicle: saline): 100 % of control | T/C (endpoint: median survival time, dose: 23.0 mg/kg/injection, schedule: Q01DX Z (sc), vehicle: saline): 90 % of control and 110 % of control | T/C (endpoint: median survival time, dose: 23.0 mg/kg/injection, schedule: Q02DX Z (sc), vehicle: saline): 100 % of control | T/C (endpoint: median survival time, dose: 23.0 mg/kg/injection, schedule: Q## X Z (sc), vehicle: saline): 100 % of control | T/C (endpoint: median survival time, dose: 36.0 mg/kg/injection, schedule: Q01DX Z (sc), vehicle: saline): 105 % of control | T/C (endpoint: median survival time, dose: 37.0 mg/kg/injection, schedule: Q02DX Z (sc), vehicle: saline): 100 % of control | T/C (endpoint: median survival time, dose: 39.0 mg/kg/injection, schedule: Q01DX001 (sc), vehicle: saline): 110 % of control | T/C (endpoint: median survival time, dose: 39.0 mg/kg/injection, schedule: Q01DX Z (sc), vehicle: saline): 95 % of control and 100 % of control | T/C (endpoint: median survival time, dose: 39.0 mg/kg/injection, schedule: Q## X Z (sc), vehicle: saline): 100 % of control | T/C (endpoint: median survival time, dose: 65.0 mg/kg/injection, schedule: Q01DX001 (sc), vehicle: saline): 120 % of control | T/C (endpoint: median survival time, dose: 65.0 mg/kg/injection, schedule: Q02DX Z (sc), vehicle: saline): 100 % of control | T/C (endpoint: median survival time, dose: 65.0 mg/kg/injection, schedule: Q## X Z (sc), vehicle: saline): 120 % of control | T/C (endpoint: median survival time, dose: 108.0 mg/kg/injection, schedule: Q01DX001 (sc), vehicle: saline): 115 % of control | T/C (endpoint: median survival time, dose: 108.0 mg/kg/injection, schedule: Q## X Z (sc), vehicle: saline): 115 % of control

O=C(Nc1ccc(C2=NCCN2)cc1)c1ccc(C(=O)Nc2ccc(C3=NCCN3)cc2)c(NC(=O)c2ccc(C(=O)Nc3cc(C(=O)Nc4ccc(C5=NCCN5)cc4)ccc3C(=O)Nc3ccc(C4=NCCN4)cc3)cc2)c1
T/C [11]: 110 % of control | T/C (endpoint: median survival time, dose: 39.0 mg/kg/injection, schedule: Q01DX Z (sc), vehicle: water): 100 % of control | T/C (endpoint: median survival time, dose: 65.0 mg/kg/injection, schedule: Q01DX Z (sc), vehicle: water): 100 % of control | T/C (endpoint: median survival time, dose: 108.0 mg/kg/injection, schedule: Q01DX Z (sc), vehicle: water): 100 % of control | T/C (endpoint: median survival time, dose: 180.0 mg/kg/injection, schedule: Q01DX Z (sc), vehicle: water): 100 % of control | T/C (endpoint: median survival time, dose: 300.0 mg/kg/injection, schedule: Q01DX Z (sc), vehicle: water): 100 % of control

O=C(NP(=O)(N1CC1)N1CC1)OCc1ccccc1
T/C (endpoint: median survival time, dose: 3.0 mg/kg/injection, schedule: Q01DX Z (sc), vehicle: water): 111 % of control | T/C (endpoint: median survival time, dose: 14.0 mg/kg/injection, schedule: Q01DX Z (sc), vehicle: water): 111 % of control | T/C [11]: 111 % of control
